Test results published in the supplement of paper PMC4862054.

Experiments:
HDQ-P1 [1] = assay: normalised viability (% of control), CellTiter-Blue; higher = more viable cells (about 100 = DMSO control); details: 300 nM; incubation time: 72 h
Method: (§1)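 DSRT, CellTiter-Blue viability, 72 h incubation. Signal is normalised to DMSO and benzethonium chloride controls. Value is the normalised response at dose 6.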

MDA-MB-453 [2] = assay: as above; details: 300 nM; incubation time: 72 h
Method: as §1

DU-4475 = assay: normalised viability (% of control), CellTiter-Blue; higher = more viable cells (about 100 = DMSO control); details: incubation time: 72 h
How it was run: (§2)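 Breast cancer cell lines were treated for 72 h in 384-well format and measured by CellTiter-Blue fluorescence at 560/590 nm. Results were normalised per plate to vehicle (100) and a positive kill control (0). The entry is normalised viability at a single listed concentration of the series.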

Hs578T [3] = assay: as above; details: incubation time: 72 h
How it was run: as §2

HCC1599 = assay: as above; details: incubation time: 72 h
How it was run: as §2

HCC1143 = assay: as above; details: incubation time: 72 h
How it was run: as §2

CAL-148 = assay: as above; details: incubation time: 72 h
How it was run: as §2

MDA-MB-468 = assay: as above; details: incubation time: 72 h
How it was run: as §2

CAL-51 = assay: as above; details: incubation time: 72 h
How it was run: as §2

MDA-MB-231 = assay: as above; details: incubation time: 72 h
How it was run: as §2

HDQ-P1 [4] = assay: as above; details: incubation time: 72 h
How it was run: as §2

CAL-120 = assay: as above; details: incubation time: 72 h
How it was run: as §2

MDA-MB-436 [5] = assay: as above; details: incubation time: 72 h
How it was run: as §2

BT-549 = assay: as above; details: incubation time: 72 h
How it was run: as §2

MFM-223 = assay: as above; details: incubation time: 72 h
How it was run: as §2

MDA-MB-453 [6] = assay: as above; details: incubation time: 72 h
How it was run: as §2

HCC1937 [7] = assay: as above; details: incubation time: 72 h
How it was run: as §2

SK-BR-3 = assay: as above; details: incubation time: 72 h
How it was run: as §2

CAL-85-1 = assay: as above; details: incubation time: 72 h
How it was run: as §2

BT-474 = assay: as above; details: incubation time: 72 h
How it was run: as §2

Hs578T [8] = assay: drug sensitivity score (DSS), CellTiter-Blue viability (DSS (AUC-based score)); higher = stronger viability inhibition; extreme values may be limits of the assay; details: incubation time: 72 h
How it was run: (§3)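 Drug sensitivity scores correspond to the area under the fitted dose-response curve. Breast cancer cell lines were incubated 72 h with compound at 5 or 9 concentrations in 384-well plates. Viability, read as CellTiter-Blue fluorescence at 560/590 nm, was normalised per plate to 0.1 % DMSO and a positive kill control.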

MDA-MB-436 [9] = assay: as above; details: incubation time: 72 h
How it was run: as §3

HCC1937 [10] = assay: as above; details: incubation time: 72 h
How it was run: as §3

O=C(O)C1(C(=O)O)CCC1.[NH2-].[NH2-].[Pt+2] [Carboplatin]
Details | drug sensitivity score | normalised viability [%]
HCC1937 [10] | 0 | –
HDQ-P1 [1] | – | 87.6
Hs578T [8] | 0 | –
MDA-MB-436 [9] | 0 | –
MDA-MB-453 [2] | – | 107

normalised viability [%]
Details | 3 nM | 10 nM | 30 nM | 100 nM | 1000 nM | 10000 nM
BT-474 | – | 127 | – | – | 121 | 113
BT-549 | – | 83.4 | – | – | 92 | 87.7
CAL-51 | 104 | – | 99 | 96.2 | – | –
CAL-85-1 | 98 | – | 82.2 | 99.6 | – | –
CAL-120 | – | 87 | – | – | 95.4 | 78.3
CAL-148 | 90 | – | 96 | 95.4 | – | –
DU-4475 | 99 | – | 74.5 | 89.4 | – | –
HCC1143 | – | 79.8 | – | – | 87.1 | 87.7
HCC1599 | – | 94.5 | – | – | 90.7 | 87.1
HCC1937 [7] | – | 82.3 | – | – | 103 | 54.2
HDQ-P1 [4] | 108 | – | 107 | 103 | – | –
Hs578T [3] | – | 105 | – | – | 94.1 | 109
MDA-MB-231 | – | 85.8 | – | – | 113 | 93.7
MDA-MB-436 [5] | – | 80.3 | – | – | 95.9 | 82.2
MDA-MB-453 [6] | 113 | – | 93.3 | 102 | – | –
MDA-MB-468 | – | 100 | – | – | 98.9 | 83.3
MFM-223 | – | 86 | – | – | 98.4 | 48.7
SK-BR-3 | – | 100 | – | – | 103 | 113

C[C@H]1C[C@@H]2[C@H]([C@@H](O)C[C@@]3(C)[C@H]2CC[C@]3(O)C(=O)CO)[C@@]2(C)C=CC(=O)C=C12 [Methylprednisolone]
Details | drug sensitivity score | normalised viability [%]
HCC1937 [10] | 0 | –
HDQ-P1 [1] | – | 74.6
Hs578T [8] | 0 | –
MDA-MB-436 [9] | 0 | –
MDA-MB-453 [2] | – | 83.3

normalised viability [%]
Details | 3 nM | 10 nM | 30 nM | 100 nM | 1000 nM | 10000 nM
BT-474 | – | 121 | – | – | 105 | 112
BT-549 | – | 89.4 | – | – | 77.8 | 78.4
CAL-51 | 100 | – | 100 | 98.2 | – | –
CAL-85-1 | 87.6 | – | 102 | 109 | – | –
CAL-120 | – | 89.7 | – | – | 79.3 | 81.1
CAL-148 | 88 | – | 99.4 | 102 | – | –
DU-4475 | 84.7 | – | 83.5 | 86.4 | – | –
HCC1143 | – | 89.8 | – | – | 111 | 92.5
HCC1599 | – | 105 | – | – | 102 | 92.5
HCC1937 [7] | – | 80.2 | – | – | 106 | 80.4
HDQ-P1 [4] | 108 | – | 103 | 122 | – | –
Hs578T [3] | – | 102 | – | – | 116 | 111
MDA-MB-231 | – | 104 | – | – | 114 | 119
MDA-MB-436 [5] | – | 108 | – | – | 92.2 | 108
MDA-MB-453 [6] | 112 | – | 85.6 | 75.3 | – | –
MDA-MB-468 | – | 92.7 | – | – | 117 | 88.2
MFM-223 | – | 89.4 | – | – | 86.3 | 74.8
SK-BR-3 | – | 107 | – | – | 97.6 | 91.4
